Ki data for one molecule are collected here from paper PMC6287826, “Regulation of histone deacetylase 3 by metal cations and 10-hydroxy-2E-decenoic acid: Possible epigenetic mechanisms of queen-worker bee differentiation” (PLoS ONE, 2018).

The target of the test is T1, histone deacetylase 3 (HDAC3) (Homo sapiens, UniProt O15379).
T1 construct: full length human HDAC3 (NP_003874.2) with a C-terminal FLAG tag, in complex with human NCOR2 amino acids 395–489 with an N-terminal 6xHis tag; with NCOR2 (SMRT) amino acids 395–489
T1 sequence (O15379 whole entry, the tested form may be a part): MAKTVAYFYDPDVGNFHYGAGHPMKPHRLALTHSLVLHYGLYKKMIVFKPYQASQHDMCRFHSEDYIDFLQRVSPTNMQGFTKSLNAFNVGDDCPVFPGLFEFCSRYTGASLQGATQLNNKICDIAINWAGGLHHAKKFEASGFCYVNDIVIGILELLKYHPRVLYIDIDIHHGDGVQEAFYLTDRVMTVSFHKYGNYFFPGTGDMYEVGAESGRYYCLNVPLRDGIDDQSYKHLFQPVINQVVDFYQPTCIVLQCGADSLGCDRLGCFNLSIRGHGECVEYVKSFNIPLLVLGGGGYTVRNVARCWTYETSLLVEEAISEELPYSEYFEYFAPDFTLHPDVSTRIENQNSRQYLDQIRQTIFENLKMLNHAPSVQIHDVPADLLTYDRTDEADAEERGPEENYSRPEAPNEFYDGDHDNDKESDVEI
T1 sequence (Q9Y618 395-489 partner): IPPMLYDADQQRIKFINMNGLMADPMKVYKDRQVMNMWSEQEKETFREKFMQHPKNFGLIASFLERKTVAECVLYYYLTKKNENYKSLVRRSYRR
The experiment in a line: Fluor de Lys fluorescent deacetylase assay, fractional activity vs [10-HDA]. Type of test: biochemical.

Regarding `O=C(O)/C=C/CCCCCCCO` [10-HDA, 10-hydroxy-2E-decenoic acid], the Ki was found to be 5.32 mM.

Usually Ki stands for the dissociation constant of the complex between target and ligand, obtained from inhibition or displacement. Low readings indicate a stronger hold on the target, high ones a looser hold on the target.
